Data set [1] addresses human inducible NOS (iNOS) (Homo sapiens (Human), UniProt P35228). As to the kind of experiment: Human iNOS enzyme assay, radiometric. The format is biochemical. The text has this: Standard deviations were 10% or less.
Data set [2] concerns L5/L6 spinal nerve ligation. The data set can be described thus: Chung spinal nerve ligation (SNL) model of neuropathic pain. Format: in vivo. Particulars: rats; for tactile hyperthesia: L5/L6 spinal nerve ligation, FIGS. 20 and 22; for thermal hyperalgesia: one standard dose (10 mg/kg) injected IP, FIG. 19, 21. As to the method: (a) Chung Model of Injury-induced Neuropathic-like Pain: The experimental designs for the Chung Spinal Nerve Ligation SNL Model assay for neuropathic pain are depicted in FIG. 18. Nerve ligation injury was performed according to the method described by Kim and Chung (Kim and Chung, Pain 50:355-363, 1992). This technique produces signs of neuropathic dysesthesias, including tactile allodynia, thermal hyperalgesia, and guarding of the affected paw. Rats were anesthetized with halothane and the vertebrae over the L4 to S2 region were exposed. The L5 and L6 spinal nerves were exposed, carefully isolated, and tightly ligated with 4-0 silk suture distal to the DRG. After ensuring homeostatic stability, the wounds were sutured, and the animals allowed to recover in individual cages. Sham-operated rats were prepared in an identical fashion except that the L5/L6 spinal nerves were not ligated. […] After a period of recovery following the surgical intervention, rats show enhanced sensitivity to painful and normally non-painful stimuli.

Data set [3] addresses human endothelial constitutive NOS (eNOS) (Homo sapiens (Human), UniProt P29474). As to the kind of experiment: Human eNOS enzyme assay, radiometric.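 Note: recombinant human eNOS expressed in baculovirus-infected Sf9 cells, activity read as [3H]L-arginine turned into [3H]L-citrulline, the product isolated on ion-exchange resin.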
Description: (§2) In a radiometric method, NO synthase activity was determined by measuring the conversion of [^3H]L-arginine to [^3H]L-citrulline.
(§3) The total volume of the reaction mixture was 150 μL in every well. […] The reaction was stopped by adding 20 μL of ice-cold buffer containing 100 mM HEPES, 3 mM EGTA, 3 mM EDTA, pH=5.5. [^3H]L-citrulline was separated by DOWEX (ion-exchange resin DOWEX 50 W X 8-400, SIGMA) and the DOWEX was removed by spinning at 12,000 g for 10 min in the centrifuge. […] All assays were performed at least in duplicate. Standard deviations were 10% or less.
Data set [4] has as its target human neuronal constitutive NOS (nNOS) (Homo sapiens (Human), UniProt P29475). The data set can be described thus: Human nNOS enzyme assay, radiometric [3H]L-arginine to [3H]L-citrulline.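 Note: recombinant human nNOS expressed in baculovirus-infected Sf9 cells, enzyme activity measured radiometrically as turnover of [3H]L-arginine into [3H]L-citrulline.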
Description: as §2, §3
The target of data set [5] is Rat nNOS (Rattus norvegicus (Rat), UniProt P29476). As to the kind of experiment: Rat nNOS hemoglobin capture assay. The format is biochemical. The conditions noted are these: Table 2a. The source says:
(§1) The NOS isoforms used in this example were recombinant enzymes expressed in E. coli. Rat nNOS was expressed and purified as described previously (Roman et al., Proc. Natl. Acad. Sci. USA 92:8428-8432, 1995). The bovine eNOS isoform was isolated as reported (Martasek et al., Biochem. Biophys. Res. Commun. 219:259-365, 1996) and murine macrophage iNOS was expressed and isolated according to the procedure of Hevel et al. (J. Biol. Chem. 266:22789-22791, 1991). IC50 values and percent inhibition of NOS by the compounds of the invention were determined under initial velocity measurement conditions with the hemoglobin capture assay as previously described (Hevel and Marletta, Methods Enzymol. 133:250-258, 1994). In this assay, nitric oxide reacts with oxyhemoglobin to yield methemoglobin, which was detected at 401 nm (e=19,700 M^−1 cm^−1) on a Perkin-Elmer Lamda 10 UV/vis spectrophotometer. The assays were performed using varying test compound concentrations. Assay mixtures for nNOS or eNOS contained […], 1.6 mM CaCl2, 11.6 mg/mL calmodulin, […], 6.5 mM BH4 and […] in 100 mM Hepes (pH 7.5). Assay mixtures for iNOS contained 10 mM of L-arginine, […], 6.5 mM BH4 and […] in 100 mM Hepes (pH 7.5). All assays were conducted in a final volume of 600 μL and were initiated with enzyme.

Data set [6] has as its target murine macrophage iNOS (Mus musculus (Mouse), UniProt P29477). The data set can be described thus: Murine iNOS hemoglobin capture assay. The format is biochemical. Particulars: Table 2a; hemoglobin capture assay; read-out: Murine iNOS.
Excerpt: as §1

Data set [7] deals with bovine eNOS (Bos taurus (Bovine), UniProt P29473). The data set can be described thus: Bovine eNOS hemoglobin capture assay. Format: biochemical. The conditions noted are these: Table 2a; hemoglobin capture assay; read-out: Bovine eNOS.
Excerpt: as §1

Data set [8] has as its target 5-HT1B (Rattus norvegicus (Rat), UniProt P28564). The data set can be described thus: 5-HT1B binding assay (agonist radioligand), rat cerebral cortex. As to the method:
5-HT1D binding assays (agonist radioligand)were performed using bovine caudate membranes according to the methods of Heuring and Peroutka (J. Neurosci 1987, 7: 894-903). 5-HT1B (rat cerebral cortex) binding assays (agonist radioligand) were performed according to the method of Hoyer et. al. (Eur. J. Pharmacol. 1995, 118: 1-12). For the purpose of result analysis, the specific ligand binding to the receptors is defined as the difference between the total binding and the nonspecific binding as determined in the presence of an excess of unlabelled ligand. The results are expressed as a percent of control specific binding obtained in the presence of the test compounds. IC50 values (concentration causing a half-maximal inhibition of control specific binding) and Hill coefficients (nH) were determined by non-linear regression analysis of the competition curves using Hill equation curve fitting and the inhibition constants (Ki) were calculated from the Cheng Prusoff equation (Ki=IC50/(1+(L/KD)), where L=concentration of radioligand in the assay, and KD=affinity of the radioligand for the receptor).

In data set [9] the test system is hindpaw allodynia. The data set can be described thus: Experimental migraine model, inflammatory soup on dura, hindpaw allodynia.
The test system of data set [10] is migraine attack. The conditions noted are these: open pilot study; cited from earlier work.
Where [11] appears, read: Table I, human NOS, dihydrochloride or monohydrochloride salts, read-out: iNOSh.
Where [12] appears, read: read-out: eNOSh, Table I, human NOS, dihydrochloride or monohydrochloride salts.
The mark [13] stands for this setting: read-out: nNOSh, Table I, human NOS, dihydrochloride or monohydrochloride salts.
The mark [14] stands for this setting: 6 mg/kg i.v. 10 minutes prior to IS.

Structures can show the parent of a compound that is named as a salt. Where two headings read alike, the source gives them in different places.

Sequence of 5-HT1B (P28564 whole entry): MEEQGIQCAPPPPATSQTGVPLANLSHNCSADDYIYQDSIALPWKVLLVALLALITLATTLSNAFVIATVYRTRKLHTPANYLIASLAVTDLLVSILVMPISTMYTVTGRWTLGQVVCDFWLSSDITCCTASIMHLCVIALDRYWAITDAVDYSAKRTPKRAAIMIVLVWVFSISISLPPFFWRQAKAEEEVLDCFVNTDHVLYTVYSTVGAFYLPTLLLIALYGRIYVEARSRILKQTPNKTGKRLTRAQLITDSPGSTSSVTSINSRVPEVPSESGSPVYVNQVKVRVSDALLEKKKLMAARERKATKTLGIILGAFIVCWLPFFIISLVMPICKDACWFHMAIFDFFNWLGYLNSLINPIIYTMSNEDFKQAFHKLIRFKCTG

A word on the melting point: it is the temperature of the solid-liquid transition. Turning to `CN1CCC[C@H]1CCc1c[nH]c2ccc(NC(=N)c3cccs3)cc12` (as salt: hydrochloride) [Compound 147, (R)-N-(3-(2-(1-Methylpyrrolidin-2-yl)ethyl)-1H-indol-5-yl)thiophene-2-carboximidamide], the melting point turned out to be 212 °C.

`CN1CCCC1CCn1ccc2ccc(NC(=N)c3cccs3)cc21` (stereo not drawn) [32(+)]: the IC50 was 72.8 µM in data set [1] (Table 2b, read-out: Human iNOS); 16 µM in data set [3] (read-out: Human eNOS, Table 2b); 0.32 µM in data set [4] (read-out: Human nNOS, Table 2b). Moreover, the tactile hyperthesia result in data set [2] is reported as “reversal of tactile hyperthesia”. Also, in [2], the thermal hyperalgesia result was “clear antihyperalgesic effect”.

Regarding `CN1CCCC1CCn1ccc2ccc(NC(=N)c3cccs3)cc21` (stereo not drawn) [32(−)], the IC50 in data set [1] (Table 2b, read-out: Human iNOS) is 72.6 µM; in data set [3] (read-out: Human eNOS, Table 2b), 24 µM; in data set [4] (read-out: Human nNOS, Table 2b) it was 0.2 µM. Moreover, in [2], the tactile hyperthesia entry is given as “reversal of tactile hyperthesia”. In addition, in [2], the thermal hyperalgesia entry is reported as “clear antihyperalgesic effect”.

For `CCSC(=N)Nc1ccc2[nH]ccc2c1` [Compound 4], the results for the IC50 in [5], in [6] and in data set [7] were 29.6 µM, 46.9 µM and 164 µM, respectively.

As for `N=C(Nc1ccc2[nH]ccc2c1)c1cccs1` [Compound 5], the IC50 in data set [5] stood at 57.6 µM; in [7], 643 µM.

Turning to `N=C(Nc1ccc2ccn(CCc3ccccc3)c2c1)c1cccs1` [Compound 27], the IC50 was 320 µM in [1] (Table 2b, read-out: Human iNOS); 14.6 µM in data set [5]; 159 µM in [6]; over 300 µM in [7]; over 100 µM in [3] (read-out: Human eNOS, Table 2b); 12 µM in data set [4] (read-out: Human nNOS, Table 2b).

On to `CN1CCCC1CCn1ccc2ccc(NC(=N)c3cccs3)cc21` (centres unmarked) [Compound 32], for which the IC50 in data set [5] was found to be 4.1 µM; in data set [6], 67.2 µM; in [7], 6.2 µM.

As for `CN1CC=C(c2c[nH]c3ccc(NC(=N)c4cccs4)cc23)CC1` [Compound 42, N-(3-(1-methyl-1,2,3,6-tetrahydropyridin-4-yl)-1H-indol-5-yl)thiophene-2-carboximidamide], the IC50 in data set [1] (setting [11]) was determined as 20 µM; in data set [8] it was 0.16 µM; in data set [3] (setting [12]), 51.1 µM; in [4] (setting [13]), 0.92 µM. In addition, the e/n in [4] is 53. For the same compound, in data set [9] (setting [14]), the “development of hindpaw allodynia” value is “prevents the development of hindpaw allodynia”.

Take `CN1CC=C(c2c[nH]c3ccc(NC(=N)c4ccco4)cc23)CC1` [Compound 46, N-(3-(1-methyl-1,2,3,6-tetrahydropyridin-4-yl)-1H-indol-5-yl)furan-2-carboximidamide]: the IC50 in [1] (setting [11]) was found to be 58 µM; in [3] (setting [12]), 54 µM; in [4] (setting [13]), 1.78 µM. Besides, the e/n in data set [4] (Table I, ratio eNOSh/nNOSh) was determined as 31.

`CN1CCC(c2c[nH]c3ccc(NC(=N)c4ccco4)cc23)CC1` [Compound 47, N-(3-(1-methylpiperidin-4-yl)-1H-indol-5-yl)furan-2-carboximidamide]: the values for the IC50 in data set [1] (setting [11]), in [3] (setting [12]) and in data set [4] (setting [13]) were 55 µM, 97.4 µM and 2.24 µM, respectively.

Consider `CN1CC=C(c2c[nH]c3ccc(CNC(=N)c4cccs4)cc23)CC1` [Compound 51, N-((3-(1-methyl-1,2,3,6-tetrahydropyridin-4-yl)-1H-indol-5-yl)methyl)thiophene-2-carboximidamide], for which the figures for the IC50 in data set [1] (setting [11]), in [3] (setting [12]) and in data set [4] (setting [13]) were 85 µM, 49.7 µM and 1.19 µM, respectively. Further, the e/n in data set [4] (Table I, ratio eNOSh/nNOSh) is on record as 42.

Take `CN(C)CCCc1c[nH]c2ccc(NC(=N)c3cccs3)cc12` [Compound 56, N-(3-(3-(dimethylamino)propyl)-1H-indol-5-yl)thiophene-2-carboximidamide]: the IC50 in data set [1] (setting [11]) worked out at 5.6 µM; in data set [3] (setting [12]), 15.1 µM; in data set [4] (setting [13]), 0.41 µM.

`CCN1CCC(c2c[nH]c3ccc(NC(=N)c4cccs4)cc23)CC1` [Compound 61, N-(3-(1-ethylpiperidin-4-yl)-1H-indol-5-yl)thiophene-2-carboximidamide] yielded a melting point of 150 to 152 °C.

With `CN1CCC[C@@H]1Cc1c[nH]c2ccc(NC(=N)c3cccs3)cc12` [Compound 97, (R)-N-(3-((1-Methylpyrrolidin-2-yl)methyl)-1H-indol-5-yl)thiophene-2-carboximidamide], the IC50 in [8] amounted to 0.31 µM; in data set [3] (setting [12]), 34.5 µM; in [4] (setting [13]), 0.84 µM. Further, the e/n in data set [4] (Table I, ratio eNOSh/nNOSh) is 41. Moreover, the “development of hindpaw allodynia” value in data set [9] (setting [14]) is reported as “prevents the development of hindpaw allodynia”.

Turning to `CN1CCC[C@H]1Cc1c[nH]c2ccc(NC(=N)c3cccs3)cc12` [Compound 105, (S)-N-(3-((1-methylpyrrolidin-2-yl)methyl)-1H-indol-5-yl)thiophene-2-carboximidamide], the IC50 in data set [8] amounted to 0.29 µM; in [3] (setting [12]), 23 µM; in data set [4] (setting [13]) it was 0.82 µM. Further, in data set [4] (Table I, ratio eNOSh/nNOSh), the e/n is recorded as 29.

Consider `CN1CCC(c2c[nH]c3ccc(NC(=N)c4cccs4)cc23)C1` (centres unmarked) [Compound 110, N-(3-(1-methylpyrrolidin-3-yl)-1H-indol-5-yl)thiophene-2-carboximidamide], for which the IC50 in data set [8] was 0.49 µM; in data set [3] (setting [12]), 39 µM; in [4] (setting [13]), 0.43 µM. The e/n in [4] (Table I, ratio eNOSh/nNOSh) amounted to 90.

For `CN1CCC(c2c[nH]c3ccc(NC(=N)c4ccco4)cc23)C1` (centres unmarked) [Compound 111, N-(3-(1-methylpyrrolidin-3-yl)-1H-indol-5-yl)furan-2-carboximidamide], the IC50 in [8] came out at 1.1 µM; in data set [3] (setting [12]), 33.8 µM; in [4] (setting [13]), 1.24 µM.

For the compound `N=C(Nc1ccc2[nH]cc(CCCN3CCOCC3)c2c1)c1cccs1` [Compound 181, N-(3-(3-morpholinopropyl)-1H-indol-5-yl)thiophene-2-carboximidamide], the IC50 in data set [1] (setting [11]) came to 9.9 µM; in data set [3] (setting [12]), 31 µM; in data set [4] (setting [13]), 2 µM. Besides, the e/n in data set [4] (Table I, ratio eNOSh/nNOSh) was 9.9.

Turning to `CNS(=O)(=O)Cc1ccc2[nH]cc(CCN(C)C)c2c1` [Sumatriptan, reference compound], in data set [9] (1 mg/kg s.c. 5 minutes prior to soup, two hours after IS), the “development of hindpaw allodynia” value was “prevention of the development of hindpaw allodynia”.

Take `C/C1=C2/[N-][C@H]([C@H](CC(N)=O)[C@@]2(C)CCC(=O)NC[C@@H](C)OP(=O)([O-])O[C@H]2[C@@H](O)[C@@H](n3cnc4cc(C)c(C)cc43)O[C@@H]2CO)[C@]2(C)N=C(/C(C)=C3N=C(/C=C4N=C1[C@@H](CCC(N)=O)C\4(C)C)[C@@H](CCC(N)=O)[C@]\3(C)CC(N)=O)[C@@H](CCC(N)=O)[C@]2(C)CC(N)=O.[Co+3].[OH-]` [hydroxycobalamin]: the “patients with reduction in the frequency of migraine attack of 50%” value in data set [10] is 53%.

(Values after patent US8586620B2, “Substituted indole compounds having NOS inhibitory activity” (NeurAxon, Inc., priority 2005, dated 2013).)
